Laboratory results published in article PMC11447909, “Substrate Specificity of a Methyltransferase Involved in the Biosynthesis of the Lantibiotic Cacaoidin” (Biochemistry, 2024).
Bridge positions count the residues as written; N and C are the ends. Square brackets hold non-standard residues; d marks the D form. Ends that are not written are not given here. Abu = CC[C@H](N)C(=O)O; Dhb = C/C=C(\N)C(=O)O; Dha = C=C(N)C(=O)O

Tests used:
[1] = system: CaoSC; assay: In vitro methylation by His6-CaoSC with SAM (MALDI-TOF MS); assay type: biochemical, Streptomyces cacaoi CA-170360; conditions: 50 μM peptide, 5 μM His6-CaoSC, 1 mM SAM, 20 mM HEPES pH 7.5, overnight, 37 °C
Protocol: For methylation, the 50 μL assay contained 50 μM peptide, 5 μM His6–CaoSC, and 1 mM SAM in 20 mM HEPES buffer (pH 7.5). After overnight reaction at 37 °C, the proteins were denatured by adding 5 μL of 2% TFA and centrifuged for 10 min at 4500 rpm in a microcentrifuge at room temperature. The supernatant was desalted using an EMD Millipore C18 ziptip, and the peptide was eluted and analyzed by MALDI-TOF MS as described above.

[2] = biological target: His6-CaoSC (methyltransferase of the cacaoidin biosynthetic gene cluster) (Streptomyces cacaoi CA-170360); assay: SEC; analytical SEC of purified His6-tagged CaoSC

nisin (I[Dhb]AI[Dha]LC[Abu]PGCK[Abu]GALMGCNMK[Abu]A[Abu]CHCSIHV[Dha]K; thioether 8-11, 13-19, 23-26, 25-28, 3-7; not fully specified (residues 7, 11, 19, 26, 28); UniProt P13068 24-57, looked up) [class I lanthipeptide, 34 residues, three dehydroamino acids, five Lan/MeLan rings; purchased from Sigma-Aldrich]
methylation by CaoSC (number of methyl groups installed at N-terminus) [1]: monomethylated

A[Dha]APATIK [synthetic 8-residue peptide with a dehydroamino acid at position 2]
methylation by CaoSC (number of methyl groups installed at N-terminus) [1]: not accepted

His6-CaoSC (methyltransferase of the cacaoidin biosynthetic gene cluster) (enzyme)
stoichiometry N [2]: 2
